# How the values were obtained:
# Aβ = Aβ (Homo sapiens, UniProt P05067); assay: Aβ fibrillogenesis, Thioflavin-T; format: biochemical; settings: for Aβ fibril inhibition (%): Aβ:inhibitor = 1:1 ratio at 100 μM Aβ concentration
# AChE = AChE (Homo sapiens, UniProt P22303); assay: biochemical; settings: read-out: AChE inhibition (%)
# BuChE = BuChE (Homo sapiens, UniProt P06276); assay: Ellman assay, BuChE inhibition; format: biochemical; settings: read-out: BuChE inhibition (%), tested at 10 μM concentration
# Aβ-peptide = Aβ-peptide (Homo sapiens, UniProt P05067); assay: High resolution mass spectrometry of inhibitor-Aβ complex formation; format: binding; settings: Aβ-peptide-14 mixture (30 μM to 150 μM); 1:1 and 1:2 complexes observed
# Chain of Aβ-peptide (P05067 672-711 limits assumed): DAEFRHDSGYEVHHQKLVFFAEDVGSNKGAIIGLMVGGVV
# Chain of Aβ (P05067 672-711 limits assumed): as above
# Chain of AChE (P22303 32-614): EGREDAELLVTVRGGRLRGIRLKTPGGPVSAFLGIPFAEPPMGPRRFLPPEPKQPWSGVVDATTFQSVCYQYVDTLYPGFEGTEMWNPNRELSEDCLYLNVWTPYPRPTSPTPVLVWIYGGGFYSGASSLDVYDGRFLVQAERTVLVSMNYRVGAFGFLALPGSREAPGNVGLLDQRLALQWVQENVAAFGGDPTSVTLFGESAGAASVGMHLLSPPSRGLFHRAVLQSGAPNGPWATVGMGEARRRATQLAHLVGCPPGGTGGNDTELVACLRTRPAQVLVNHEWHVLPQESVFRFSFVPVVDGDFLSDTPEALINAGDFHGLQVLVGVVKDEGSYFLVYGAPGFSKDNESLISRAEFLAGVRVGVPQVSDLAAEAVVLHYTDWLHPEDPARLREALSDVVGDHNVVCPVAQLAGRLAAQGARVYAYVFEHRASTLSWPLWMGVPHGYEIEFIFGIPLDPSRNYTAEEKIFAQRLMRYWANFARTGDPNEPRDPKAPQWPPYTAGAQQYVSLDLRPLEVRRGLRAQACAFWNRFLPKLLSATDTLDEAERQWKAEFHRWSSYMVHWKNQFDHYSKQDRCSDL
# Chain of BuChE (P06276 29-602): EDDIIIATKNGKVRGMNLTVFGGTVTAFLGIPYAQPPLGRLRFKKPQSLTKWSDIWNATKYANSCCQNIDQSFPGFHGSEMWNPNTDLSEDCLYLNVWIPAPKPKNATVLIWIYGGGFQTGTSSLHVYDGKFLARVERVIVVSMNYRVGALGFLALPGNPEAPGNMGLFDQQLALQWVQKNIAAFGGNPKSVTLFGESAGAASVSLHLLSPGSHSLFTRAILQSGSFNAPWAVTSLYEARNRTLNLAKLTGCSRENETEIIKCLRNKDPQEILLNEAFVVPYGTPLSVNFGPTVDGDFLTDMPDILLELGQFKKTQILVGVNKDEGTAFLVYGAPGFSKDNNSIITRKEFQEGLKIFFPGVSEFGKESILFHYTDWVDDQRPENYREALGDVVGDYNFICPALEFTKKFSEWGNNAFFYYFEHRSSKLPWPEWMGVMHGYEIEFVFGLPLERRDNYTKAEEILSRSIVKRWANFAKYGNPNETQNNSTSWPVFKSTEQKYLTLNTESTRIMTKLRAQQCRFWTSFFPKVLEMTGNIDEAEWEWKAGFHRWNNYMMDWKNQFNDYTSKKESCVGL
Structure (SMILES),Aβ fibril inhibition (%) (Aβ),inhibition at 2 µM (AChE),EC50 (Aβ),inhibition at 10 µM (BuChE),Complex formation with Aβ peptide (HR-MS) (Aβ-peptide)
c1ccc2c(c1)[nH]c1c(C3CCCCC3)nccc12 [Compound 13],−12%,,,,
COc1ccc2[nH]c3c(-c4ccc(C)cc4)nccc3c2c1 [Compound 4],,-15%,,,
c1ccc(-c2nccc3c2[nH]c2ccccc23)cc1 [Compound 1],,-12%,,,
c1ccc2c(-c3nccc4c3[nH]c3ccccc34)cccc2c1 [Compound 14],,-11%,~110 µM,> 80%,forms a complex with the peptide
Fc1ccc(-c2nccc3c2[nH]c2ccccc23)cc1 [Compound 6],39%,,,> 80%,

# — article PMC5282889 (Bioorganic & medicinal chemistry letters, 2016)
